Source: US20130216614A1, “IMMUNOGENIC COMPOSITIONS AND METHODS FOR TREATING NUEROLOGIC DISORDERS” (Glaxosmithkline Biologicals S.A., priority 2010, published 2013)

Tested on: peripheral blood monocytes
Assay: Ex vivo uptake of fluorescent Aβ42 by peripheral blood monocytes from adjuvanted mice
Format: in vivo, C57BL/6 mice
Settings: 24 hrs after i.m. injection, FIG. 21; QS21 5 μg
From the text: To begin to examine the function of the increase of monocytes in the peripheral blood, we examined the capacity of those monocytes to uptake Aβ42 in a test tube. In order to measure that phagocytic activity, we have used fluorescent HiLyteFluo Aβ42 (Anaspec Inc).
We examined the capacity of monocytes to uptake Aβ42 in a test tube. In order to measure that phagocytic activity we have used fluorescent HiLyteFluo Aβ42 (Anaspec Inc).
Preparation of cells: Peripheral blood was drawn from C57BL/6 mice via cardiac puncture with lithium-heparin as anticoagulant, 24-Hour after injection of the adjuvants used herein. Red blood cell lysis was performed twice on pooled blood with Ammonium Chloride-based Buffer (Sigma, Steinheim, Germany) and cells were counted with the EasyCount™ System (Immunicon). […]
Samples were acquired on a flow cytometer (BD FACSCanto II) and data analyzed with the FACSDiva software (BD Biosciences).
Monocytes were identified by their Side/Forward scatter properties, excluding debris and gated as CD3-/CD45R/B220-/Ly-6G-/NK1.1-(Lineage-)/CD11b+ cells. Aβ uptake was assessed by reporting the percentage and Mean Fluorescence Intensity (GeoMean) of positive HiLyte fluor488 Aβ1-42 cells among gated monocytes.

Substance: QS21 [reference compound]
- ex vivo Aβ uptake by mouse peripheral blood monocytes: does not promote
